Reference: US12433865B2, “Compositions comprising PGI2-receptor agonists and processes for the preparation thereof” (Arena Pharmaceuticals, Inc., priority 2018, dated 2025)

Experiment: Release (dissolution) profile of capsules, USP Apparatus 2 (paddle)
Format: physicochemical
Text: USP Apparatus 2 (Paddle Apparatus) is described, for example, in the United States Pharmacopeial Convention, Feb. 1, 2012, Chapter <711> (“Dissolution”), incorporated by reference herein in its entirety. See http://www.usp.org/sites/default/files/usp_pdf/EN/USPNF/revisions/m99470-gc_711.pdf. The assembly from Apparatus 1 is used, except that a paddle formed from a blade and a shaft is used as the stirring element. The shaft is positioned so that its axis is not more than 2 mm from the vertical axis of the vessel at any point and rotates smoothly without significant wobble that could affect the results. The vertical center line of the blade passes through the axis of the shaft so that the bottom of the blade is flush with the bottom of the shaft. A distance of 25±2 mm between the bottom of the blade and the inside bottom of the vessel is maintained during the test. The metallic or suitably inert, rigid blade and shaft comprise a single entity. A suitable two-part detachable design may be used provided the assembly remains firmly engaged during the test. The paddle blade and shaft may be coated with a suitable coating so as to make them inert. The dosage unit is allowed to sink to the bottom of the vessel before rotation of the blade is started. A small, loose piece of nonreactive material, such as not more than a few turns of wire helix, may be attached to dosage units that would otherwise float. Other validated sinker devices may be used.
Unless otherwise specified, the release profiles for capsules were measured using USP Apparatus 2 (paddle).
All release profiles disclosed in Tables 3c-3p were measured with USP Apparatus 2 (paddle) at 50 rpm in 500 mL of aqueous sodium phosphate at a concentration of 0.05 M (pH=6.8). The values in a given table relate to capsules obtained from the same batch. Values shown represent mean values over a number of dissolution tests (“n” in each table) in each case.

In the case of O=C(O)COC[C@H]1CC[C@H](COC(=O)N(c2ccccc2)c2ccc(Cl)cc2)CC1 [Compound 1, 2-(((1r,4r)-4-(((4-chlorophenyl)(phenyl)carbamoyloxy)methyl)cyclohexyl)methoxy)acetic acid], the “mean value (n = 4) of % of Compound 1 released” value (Table 3p: size 4 capsule, 0.5 mg Compound 1, Poloxamer 188:food grade GMS 30:70, 735 min) is reported as 96.1%, the “mean value (n = 4) of % of Compound 1 released” value (Table 3q: size 4 capsule, 0.5 mg Compound 1, Poloxamer 188:food grade GMS 30:70, 30 min) is reported as 6.2% and the “mean value (n = 4) of % of Compound 1 released” value (Table 3q: size 4 capsule, 0.5 mg Compound 1, Poloxamer 188:food grade GMS 30:70, 60 min) is reported as 13.7%. The “mean value (n = 4) of % of Compound 1 released” value (Table 3q: size 4 capsule, 0.5 mg Compound 1, Poloxamer 188:food grade GMS 30:70, 120 min) was 27.3%, the “mean value (n = 4) of % of Compound 1 released” value (Table 3q: size 4 capsule, 0.5 mg Compound 1, Poloxamer 188:food grade GMS 30:70, 180 min) was 40.3% and the “mean value (n = 4) of % of Compound 1 released” value (Table 3q: size 4 capsule, 0.5 mg Compound 1, Poloxamer 188:food grade GMS 30:70, 240 min) was 52.5%. The “mean value (n = 4) of % of Compound 1 released” value (Table 3q: size 4 capsule, 0.5 mg Compound 1, Poloxamer 188:food grade GMS 30:70, 360 min) was 74.2%, the “mean value (n = 4) of % of Compound 1 released” value (Table 3q: size 4 capsule, 0.5 mg Compound 1, Poloxamer 188:food grade GMS 30:70, 480 min) was 85.5% and the “mean value (n = 4) of % of Compound 1 released” value (Table 3q: size 4 capsule, 0.5 mg Compound 1, Poloxamer 188:food grade GMS 30:70, 600 min) was 91.5%. For the same compound, the “mean value (n = 4) of % of Compound 1 released” value (Table 3q: size 4 capsule, 0.5 mg Compound 1, Poloxamer 188:food grade GMS 30:70, 720 min) was 93.4%, the “mean value (n = 4) of % of Compound 1 released” value (Table 3q: size 4 capsule, 0.5 mg Compound 1, Poloxamer 188:food grade GMS 30:70, 735 min) was 94.5% and the “mean value (n = 6) of % of Compound 1 released” value (Table 3r: size 4 capsule, 0.03 mg Compound 1, Poloxamer 188:food grade GMS 30:70, 60 min) was 11%. For the same compound, the “mean value (n = 6) of % of Compound 1 released” value (Table 3r: size 4 capsule, 0.03 mg Compound 1, Poloxamer 188:food grade GMS 30:70, 120 min) was 23%, the “mean value (n = 6) of % of Compound 1 released” value (Table 3r: size 4 capsule, 0.03 mg Compound 1, Poloxamer 188:food grade GMS 30:70, 180 min) was 33% and the “mean value (n = 6) of % of Compound 1 released” value (Table 3r: size 4 capsule, 0.03 mg Compound 1, Poloxamer 188:food grade GMS 30:70, 240 min) was 43%. The “mean value (n = 6) of % of Compound 1 released” value (Table 3r: size 4 capsule, 0.03 mg Compound 1, Poloxamer 188:food grade GMS 30:70, 360 min) was 62%, the “mean value (n = 6) of % of Compound 1 released” value (Table 3r: size 4 capsule, 0.03 mg Compound 1, Poloxamer 188:food grade GMS 30:70, 480 min) was 77% and the “mean value (n = 6) of % of Compound 1 released” value (Table 3r: size 4 capsule, 0.03 mg Compound 1, Poloxamer 188:food grade GMS 30:70, 600 min) was 87%. For the same compound, the “mean value (n = 6) of % of Compound 1 released” value (Table 3r: size 4 capsule, 0.03 mg Compound 1, Poloxamer 188:food grade GMS 30:70, 720 min) was 91%, the “mean value (n = 6) of % of Compound 1 released” value (Table 3r: size 4 capsule, 0.03 mg Compound 1, Poloxamer 188:food grade GMS 30:70, 840 min) was 95% and the “mean value (n = 6) of % of Compound 1 released” value (Table 3s-1: Storage time = 0, size 4 capsule, 0.03 mg Compound 1, Poloxamer 188:food grade GMS 30:70, 60 min) was 16.7%. For the same compound, the “mean value (n = 6) of % of Compound 1 released” value (Table 3s-1: Storage time = 0, size 4 capsule, 0.03 mg Compound 1, Poloxamer 188:food grade GMS 30:70, 120 min) was 27.5%, the “mean value (n = 6) of % of Compound 1 released” value (Table 3s-1: Storage time = 0, size 4 capsule, 0.03 mg Compound 1, Poloxamer 188:food grade GMS 30:70, 180 min) was 38.3% and the “mean value (n = 6) of % of Compound 1 released” value (Table 3s-1: Storage time = 0, size 4 capsule, 0.03 mg Compound 1, Poloxamer 188:food grade GMS 30:70, 240 min) was 50.3%. The “mean value (n = 6) of % of Compound 1 released” value (Table 3s-1: Storage time = 0, size 4 capsule, 0.03 mg Compound 1, Poloxamer 188:food grade GMS 30:70, 360 min) was 72.3%, the “mean value (n = 6) of % of Compound 1 released” value (Table 3s-1: Storage time = 0, size 4 capsule, 0.03 mg Compound 1, Poloxamer 188:food grade GMS 30:70, 480 min) was 88.7% and the “mean value (n = 6) of % of Compound 1 released” value (Table 3s-1: Storage time = 0, size 4 capsule, 0.03 mg Compound 1, Poloxamer 188:food grade GMS 30:70, 600 min) was 96.0%. For the same compound, the “mean value (n = 6) of % of Compound 1 released” value (Table 3s-2: Storage time = 2 weeks, size 4 capsule, 0.03 mg Compound 1, Poloxamer 188:food grade GMS 30:70, 60 min) was 16.0%, the “mean value (n = 6) of % of Compound 1 released” value (Table 3s-2: Storage time = 2 weeks, size 4 capsule, 0.03 mg Compound 1, Poloxamer 188:food grade GMS 30:70, 120 min) was 27.7% and the “mean value (n = 6) of % of Compound 1 released” value (Table 3s-2: Storage time = 2 weeks, size 4 capsule, 0.03 mg Compound 1, Poloxamer 188:food grade GMS 30:70, 180 min) was 39.7%. For the same compound, the “mean value (n = 6) of % of Compound 1 released” value (Table 3s-2: Storage time = 2 weeks, size 4 capsule, 0.03 mg Compound 1, Poloxamer 188:food grade GMS 30:70, 240 min) was 52.2%, the “mean value (n = 6) of % of Compound 1 released” value (Table 3s-2: Storage time = 2 weeks, size 4 capsule, 0.03 mg Compound 1, Poloxamer 188:food grade GMS 30:70, 360 min) was 74.6% and the “mean value (n = 6) of % of Compound 1 released” value (Table 3s-2: Storage time = 2 weeks, size 4 capsule, 0.03 mg Compound 1, Poloxamer 188:food grade GMS 30:70, 480 min) was 89.4%. The “mean value (n = 6) of % of Compound 1 released” value (Table 3s-2: Storage time = 2 weeks, size 4 capsule, 0.03 mg Compound 1, Poloxamer 188:food grade GMS 30:70, 600 min) was 96.7%, the “mean value (n = 6) of % of Compound 1 released” value (Table 3h: size 4 capsule, 0.03 mg Compound 1, Poloxamer 188:food grade GMS 50:50, 60 min) was 17.9% and the “mean value (n = 6) of % of Compound 1 released” value (Table 3h: size 4 capsule, 0.03 mg Compound 1, Poloxamer 188:food grade GMS 50:50, 120 min) was 35.9%. For the same compound, the “mean value (n = 6) of % of Compound 1 released” value (Table 3h: size 4 capsule, 0.03 mg Compound 1, Poloxamer 188:food grade GMS 50:50, 180 min) was 51.7%, the “mean value (n = 6) of % of Compound 1 released” value (Table 3h: size 4 capsule, 0.03 mg Compound 1, Poloxamer 188:food grade GMS 50:50, 240 min) was 67.9% and the “mean value (n = 6) of % of Compound 1 released” value (Table 3h: size 4 capsule, 0.03 mg Compound 1, Poloxamer 188:food grade GMS 50:50, 300 min) was 83.6%. For the same compound, the “mean value (n = 6) of % of Compound 1 released” value (Table 3h: size 4 capsule, 0.03 mg Compound 1, Poloxamer 188:food grade GMS 50:50, 360 min) was 92.3%, the “mean value (n = 6) of % of Compound 1 released” value (Table 3h: size 4 capsule, 0.03 mg Compound 1, Poloxamer 188:food grade GMS 50:50, 480 min) was 98.1% and the “mean value (n = 4) of % of Compound 1 released” value (Table 3d: size 4 capsule, 0.5 mg Compound 1, Poloxamer 188:food grade GMS 70:30, 30 min) was 13.8%. For the same compound, the “mean value (n = 4) of % of Compound 1 released” value (Table 3d: size 4 capsule, 0.5 mg Compound 1, Poloxamer 188:food grade GMS 70:30, 60 min) was 60.2%, the “mean value (n = 4) of % of Compound 1 released” value (Table 3d: size 4 capsule, 0.5 mg Compound 1, Poloxamer 188:food grade GMS 70:30, 120 min) was 92.1% and the “release rate relative to immediate release composition” value (capsule, Gelucire 50/13:Kolliphor RH40 50:50 (FIG. 3)) was “substantially reduced”. The “change of release rate after storage” value (capsule, Gelucire 50/13:Kolliphor RH40 75:25, storage at 40° C. and 75% RH over time (FIG. 4)) was “significantly increased”, the “release rate, 90:10 ratio relative to 80:20 ratio” value (capsule, Gelucire 50/13:Kolliphor RH40 90:10 vs 80:20 (FIG. 3)) was “further reduced” and the “effect of curing in stabilizing the release profile” value (research grade GMS (lower monoester content) instead of food grade GMS) was “not as effective”.
